The text below walks through data of ChEMBL document CHEMBL1138928, “Toward orthopoxvirus countermeasures: a novel heteromorphic nucleoside of unusual structure” (J Med Chem, 2006).

The EC50 is the midpoint of the concentration-response curve.

The assay concerns Vaccinia virus. The experiment in a line: Antiviral activity against vaccinia virus in HFF cells by cytopathogenic effect assay. In kind it is functional, organism-based. To be noted: Orthopoxvirus vaccinia.

Regarding `N#CC1=C(N)OC2=C(C(=O)CCC2)C1c1cn([C@H]2C[C@@H](O)[C@@H](CO)O2)c(=O)[nH]c1=O` (some centres not stated), the midpoint of the response, the EC50, lay at 600 nM. The figure for `Nc1ccn(C[C@@H](CO)OCP(=O)(O)O)c(=O)n1` [CIDOFOVIR] is 3200 nM.
